Experimental data: US20250221405A1, “ROOT NODULE FORMATION-PROMOTING COMPOSITION, AND ROOT HAIR FORMATION-PROMOTING COMPOSITION” (KANEKA CORPORATION, priority 2022, published 2025)

Experiments:
[1] = test system: soybeans (Fukuyutaka); assay: Experimental Example 2: soil irrigation with composition comprising rhizobium materials, number of root nodules; assay type: in vivo, soybean; details: Table 2-2, irrigation
Experimental: For each of the following treatment, to a mixture of rhizobium materials (rhizobium and azospirillum) mixed with water at a proportion of 10 g/L, SF, SL, or RL was added in the following amount to prepare a solution comprising the rhizobium materials and SF, SL, or RL (a composition for promoting root nodule formation).
A 9 cm poly pot was filled with culture soil and seeded with three seeds of soybeans (Fukuyutaka) in each pot.
(§1) After seeding, the seeds were cultivated in a greenhouse set at 28° C. during the day (14h) and 18° C. at night (10h).
(§2) Seven days after the seeding, the soybeans in each pot were thinned to one plant, and each pot was irrigated with 4.3 ml of the composition for promoting root nodule formation (in the treatment T1, a mixture of rhizobium materials (rhizobium and azospirillum) mixed with water at a proportion of 10 g/L).
(§3) Twenty-one days after the irrigation, the roots were washed with water so as not to remove root nodules, the culture soil was removed, and then, the root nodules formed on the roots were collected.
(§4) After the seeding, each pot was fertilized with ½ Hoagland solution (50 mL) once a week. In addition, experiments were conducted on eight pots (eight plants) in each treatment.
(§5) A plurality of experiments were conducted by changing the type of the composition for promoting root nodule formation and the like. Tables 2-1 and 2-2 show the date of seeding, the date of irrigating, the date of investigating the number of root nodules, the composition for promoting root nodule formation, and the investigation result of the number of root nodules. Note that the number of root nodules is indicated by a relative value with T1 taken as 100, with a numerical value in parentheses indicating the average number of root nodules actually measured (pieces/plant).

[2] = test system: Japanese mustard spinach (Haru no Senbatsu); assay: Experimental Example 5: foliar application, microscopic observation of root hair; assay type: in vivo; design: key: those with a significant root hair increase observed were evaluated as AA; those with a root hair increase observed were evaluated as BB; those with no root hair increase observed were evaluated as CC; those with an overall or partial root hair decrease observed were evaluated as DD
Experimental: An observation tank formed with ½ MS agar medium (0.8% agar) was prepared in an acrylic tank. Japanese mustard spinach (Haru no Senbatsu) was seeded near the surface of the observation tank. After seeding, the Japanese mustard spinach was cultivated in an incubator set in a light period (6:00-18:00, temperature 26° C., illuminance 120 μmol/m^2·s) and a dark period (18:00-6:00, temperature 18° C.). Twelve to fourteen days after the seeding, the following liquid (a composition for promoting root hair formation) was applied on the leaf surfaces of the plant body (foliar application) so as not to drip on the agar in each of the following treatments. […] A plurality of experiments were conducted by changing the date of seeding, the date of foliar application, the date of observation, and the type of the composition for promoting root hair formation and the like. Tables 5 to 9 show the composition for promoting root hair formation, the outline of operation and the observation results of root hair.

[3] = test system: soybeans (Fukuyutaka); assay: Experimental Example 3: seed coating with biosurfactant and/or KVP, number of root nodules; assay type: in vivo, soybean; details: Table 3-2
Experimental: A solution of SF, SL, or RL and/or KVP dissolved in water (a composition for promoting root nodule formation) as the following amount in each of the following treatments was prepared. The seeds of soybeans (Fukuyutaka) were coated using the solution in an amount of 800 μL/100 g seed to obtain coated seeds.
(§6) A 9 cm poly pot was filled with culture soil and seeded with three coated seeds in each pot.
(§7) After seeding, the coated seeds were cultivated in a greenhouse set at 28° C. during the day (14h) and 18° C. at night (10h).
Seven days after the seeding, the soybeans in each pot were thinned to one plant, and each pot was irrigated with 4.3 mL of a mixture of rhizobium materials (rhizobium and azospirillum) mixed with water at a proportion of 10 g/L.
as §3, §4
A plurality of experiments were conducted by changing the type of the composition for promoting root nodule formation and the like. Tables 3-1 and 3-2 show the amounts of SF, SL, or RL and/or KVP in the composition for promoting root nodule formation and the investigation result of the number of root nodules. Note that the number of root nodules is indicated by a relative value with Tl taken as 100, with a numerical value in parentheses indicating the average number of root nodules actually measured (pieces/plant).

[4] = test system: soybeans (Fukuyutaka); assay: Experimental Example 4: soil irrigation with biosurfactant and/or KVP, root nodule number and weight, root weight; assay type: in vivo, soybean; details: with rhizobium materials
Experimental: For each of the following treatments, to a mixture of rhizobium materials (rhizobium and azospirillum) mixed with water at a proportion of 10 g/L, SF, SL, or RL was added in the following amount to prepare a solution comprising the rhizobium materials and SF, SL, or RL (a composition for promoting root nodule formation).
A 9 cm poly pot was filled with sterilized fertilizer-free culture soil (Heiwa) and seeded three seeds of soybeans (Fukuyutaka) in each pot.
as §1, §2, §3, §4
as §5, with “4-1” for “2-1”, “4-2” for “2-2”, “Tl” for “T1”, “(pieces/plant). In addition, fresh root nodule weight means the weight of root nodules before drying on the day of collection and is indicated by a relative value with Tl taken as 100. Dried underground part weight means the weight of roots dried for 48 hours at 80° C. and indicated by a relative value with Tl taken as 100.” for “(pieces/plant).”

[5] = test system: soybeans (Fukuyutaka); assay: Experimental Example 1: seed coating, number of root nodules; assay type: in vivo, soybean; details: Table 1-2
Experimental: A solution of SF, SL, or RL dissolved in water (a composition for promoting root nodule formation) as the following amount in each of the following treatments was prepared. The seeds of soybeans (Fukuyutaka) were coated using the solution in an amount of 800 μL/100 g seed to obtain coated seeds.
as §6, §7
Seven days after the seeding, the soybeans in each pot were thinned to one plant, and each pot was irrigated with 4.3 ml of a mixture of rhizobium materials (rhizobium and azospirillum) mixed with water at a proportion of 10 g/L.
as §3
After the seeding, each pot was fertilized with ½ Hoagland solution once a week. In addition, experiments were conducted on eight pots (eight plants) in each treatment.
as §5, with “1-1” for “2-1”, “1-2” for “2-2”, “nodules, the amount of SF, SL, or RL in” for “nodules,”, “Tl” for “T1”

[6] = seed coating SL or RL 0.5 g/t seed (diluted 16000 times)
[7] = seed coating SL or RL 5 g/t seed (diluted 1600 times)
[8] = Table 4-2, single agent diluted 1000 times
[9] = Table 4-2, single agent diluted 10000 times

| Substance | Number of Root Nodules, average number actually measured ([1]; diluted 1000 times) [pieces/plant] | Number of Root Nodules, relative value with T1 taken as 100 ([1]; diluted 1000 times) | Number of Root Nodules, average number actually measured ([1]; diluted 5000 times) [pieces/plant] | Number of Root Nodules, relative value with T1 taken as 100 ([1]; diluted 5000 times) | Number of Root Nodules, average number actually measured ([1]; diluted 10000 times) [pieces/plant] | Number of Root Nodules, relative value with T1 taken as 100 ([1]; diluted 10000 times) | Number of Root Nodules, average number actually measured [3, 6] [pieces/plant] | Number of Root Nodules, relative value with T1 taken as 100 [3, 6] | Number of Root Nodules, average number actually measured [3, 7] [pieces/plant] | Number of Root Nodules, relative value with T1 taken as 100 [3, 7] | Dried Underground Part Weight, relative value with T1 taken as 100 [4, 8] | Fresh Root Nodule Weight, relative value with T1 taken as 100 [4, 8] | Number of Root Nodules, average number actually measured [4, 8] [pieces/plant] | Number of Root Nodules, relative value with T1 taken as 100 [4, 8] | Dried Underground Part Weight, relative value with T1 taken as 100 [4, 9] | Fresh Root Nodule Weight, relative value with T1 taken as 100 [4, 9] | Number of Root Nodules, average number actually measured [4, 9] [pieces/plant] | Number of Root Nodules, relative value with T1 taken as 100 [4, 9] | Number of Root Nodules, average number actually measured ([5]; seed coating 1 g/t seed) [pieces/plant] | Number of Root Nodules, relative value with T1 taken as 100 ([5]; seed coating 1 g/t seed) | further results |
| --- | --- | --- | --- | --- | --- | --- | --- | --- | --- | --- | --- | --- | --- | --- | --- | --- | --- | --- | --- | --- | --- |
| rhamnolipid [RL] | 13.6 | 116 | 13.6 | 116 | 13.4 | 115 | 24.6 | 105 | 25.3 | 107 | 105 | 115 | 19.5 | 116 | 105 | 114 | 18.5 | 110 | 16.0 | 137 | Observation Result (root hair) ([2]; Table 7, aqueous solution diluted 1000 times): BB; Observation Result (root hair) ([2]; Table 7, aqueous solution diluted 2000 times): BB; Observation Result (root hair) ([2]; Table 7, aqueous solution diluted 5000 times): BB; Number of Root Nodules, average number actually measured ([5]; seed coating 10 g/t seed): 13.2 pieces/plant; Number of Root Nodules, relative value with T1 taken as 100 ([5]; seed coating 10 g/t seed): 113; Number of Root Nodules, average number actually measured ([5]; seed coating 50 g/t seed): 15.3 pieces/plant; Number of Root Nodules, relative value with T1 taken as 100 ([5]; seed coating 50 g/t seed): 131 |
| sophorolipid [SL] | 15.7 | 134 | 12.1 | 104 | 11.9 | 102 | 24.5 | 104 | 24.9 | 106 | 102 | 113 | 18.5 | 110 | 185 | 105 | 17.8 | 105 | 15.3 | 131 | Observation Result (root hair) ([2]; Table 6, aqueous solution diluted 1000 times): BB; Observation Result (root hair) ([2]; Table 6, aqueous solution diluted 2000 times): BB; Number of Root Nodules, average number actually measured ([5]; seed coating 0.1 g/t seed): 11.8 pieces/plant; Number of Root Nodules, relative value with T1 taken as 100 ([5]; seed coating 0.1 g/t seed): 101; Number of Root Nodules, average number actually measured ([5]; seed coating 10 g/t seed): 13.3 pieces/plant; Number of Root Nodules, relative value with T1 taken as 100 ([5]; seed coating 10 g/t seed): 114 |
